One series concerns Breast line. In words: Human tumour xenograft in nude mice: breast. Conditions: i.v. days 46 and 53, 4 and 6 mg/kg. It counts as in vivo. The source says: (§1) Based on the results obtained during the in vitro experiments indoloquinone E.O. 9 was selected for an extended in vivo study. The activity of this compound has been determined in four human tumour xenografts transplanted in nude mice.
(§2) The xenograft experiments have been carried by Dr. H. H. Fiebig of the University of Freiburg [Lung-NSCLC (LXGF) line, Renal line, Breast line; See: H. H. Fiebig et al., Behring Inst. Mitt., 74 343] and by Dr. E. Boven of the Free University Hospital Amsterdam [Ovarian (MRI-H-207) line; See: E. Boven et al., Cancer Res., 45, 86 (1985) and E. Boven et al., Eur. J. Clin. Oncol., 21, 1253 (1985)].
The tumour was transplanted s.c. and E.O. 9 was administrated i.v. on days 46 and 53 after transplantation at a dose of 4 and 6 mg/kg.
On the technique in general: A xenograft is tissue or cells of one species grown in another, often human tumour cells in immunodeficient mice.

In another series the test system is Renal line (RXF 423). Nature of the series: Human tumour xenograft in nude mice: renal. It counts as in vivo. Conditions: i.v. days 22 and 29, 4 and 6 mg/kg.
Text: as §1, §2
The tumour was transplanted s.c. and E.O. 9 was administrated i.v. on days 22 and 29 after transplantation at a dose of 4 and 6 mg/kg.

The next series has as its system Lung-NSCLC (LXFG) line. In words: Human tumour xenograft in nude mice: lung. The format is in vivo. Conditions: i.v. days 14 and 21, 4 and 6 mg/kg.
Text: as §1, §2
The tumour was transplanted s.c. and E.O. 9 was administrated i.v. on days 14 and 21 after transplantation at a dose of 4 and 6 mg/kg.

A further series deals with Ovarian (MRI-H-207) line. It counts as in vivo, human. The settings on record: for T/C % / toxic deaths: days of treatment 0.7.
Text: as §2
Mice: C57B1 athymic (nu/nu) female mice, 8 to 10 weeks of age were used for s.c. bilateral implantation of tumour fragments 2 mm diameter.
Treatment: E.O. 9 was dissolved in saline at a concentration of 0.5 mg/ml prior to administration. Drug doses and schedules were derived from studies in experimental murine tumour systems and from orientation studies in non-tumour-bearing nude mice. Treatment was started i.v. when tumours measured 50-150 mm^3. After randomization a group of 6-7 tumour-bearing mice was treated and a group of 5-6 tumour-bearing mice served as control.
Evaluation of efficacy: Tumours were measured twice weekly in three dimensions. Efficacy was expressed as the mean of relative tumour volume in treated animals vs. that in control animals×100 (% T/C). The optimal value was calculated within 35 days after the last injection. Toxic death (dead mice within two weeks after the last injection) were excluded from the evaluation.
MRI-H-207: An undifferentiated adenocarcinoma kindly provided by Dr. A. E. Bogden, Worcester, Mass, with a doubling time of 3-5 days.

Like-named read-outs stand apart in the source and are kept apart here.

Consider `Cn1c(/C=C/CO)c(CO)c2c1C(=O)C=C(N1CC1)C2=O` [E.O. 9, 5-Aziridino-3-hydroxymethyl-1-methyl-2-[1H-indole-4,7-dione]prop-β-en-α-ol], for which the optimal growth inhibition in the series with Breast line came to 51%; in the series on Lung-NSCLC (LXFG) line it was 42%; in the series with Ovarian (MRI-H-207) line (5 and 6 mg/kg q8d×2) it was 98%. For the same molecule, in the series with Renal line (RXF 423), the “growth inhibition” value is listed as “No significant growth inhibition”. Also, the specific growth delay with Lung-NSCLC (LXFG) line was found to be 1.03. Besides, the T/C % in the series with Ovarian (MRI-H-207) line (5 mg/kg) is recorded as 3.8%; in the series on Ovarian (MRI-H-207) line (6 mg/kg) it was 2.4%. For the same molecule, the toxic deaths is 0/7 in the series with Ovarian (MRI-H-207) line (5 mg/kg) and 1/7 with Ovarian (MRI-H-207) line (6 mg/kg).

Source of the values: patent US5079257A, “Indoloquinone compounds” (priority 1986, dated 1992).
